According to PubChem BioAssay AID330 (DTP/NCI, 2004):
“And” between values parts separate entries of the source, which are not always exact repeats. Equal entries are not always repeated. Toxic doses and inconclusive results are not listed. Rule for the calls: active = survival T/C of 150% or more; inactive = T/C below 125% in these data.

Test system: P388 leukemia ip, CD2F1 mice, survival T/C
Test: NCI In Vivo Anticancer Drug Screen. Data for tumor model P388 Leukemia (intraperitoneal) in CD2F1 (CDF1) mice
Conditions: endpoint: median survival time, higher = longer survival
Method in brief: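 Mice carrying the transplanted tumor received test compound or vehicle. Survival was recorded in each group, and the value is the treated-group measurement divided by that of the vehicle-treated control group.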

[1] = dose: 50.0 mg/kg/injection, schedule: Q01DX009 (ip), vehicle: Klucel (hydroxypropylcellulose) (HPC)
[2] = dose: 100.0 mg/kg/injection, schedule: Q01DX009 (ip), vehicle: Klucel (hydroxypropylcellulose) (HPC)
[3] = dose: 200.0 mg/kg/injection, schedule: Q01DX009 (ip), vehicle: Klucel (hydroxypropylcellulose) (HPC)
[4] = dose: 60.0 mg/kg/injection, schedule: Q01DX005 (ip), vehicle: saline with Tween-80
[5] = dose: 120.0 mg/kg/injection, schedule: Q01DX005 (ip), vehicle: saline with Tween-80
[6] = dose: 240.0 mg/kg/injection, schedule: Q01DX005 (ip), vehicle: saline with Tween-80
[7] = dose: 50.0 mg/kg/injection, schedule: Q01DX005 (ip), vehicle: saline with Tween-80
[8] = dose: 100.0 mg/kg/injection, schedule: Q01DX005 (ip), vehicle: saline with Tween-80

Measured: T/C

COC(=O)c1cc(NS(=O)(=O)N(C)C)cc(C(=O)OC)c1
inactive: [1] 103 % of control | [2] 103 % of control | [3] 103 % of control

N#Cc1cnc2n(c1=N)CCCCC2
inactive: dose: 25.0 mg/kg/injection, schedule: Q04DX003 (ip), vehicle: Klucel (hydroxypropylcellulose) (HPC) 102 % of control | dose: 50.0 mg/kg/injection, schedule: Q04DX003 (ip), vehicle: Klucel (hydroxypropylcellulose) (HPC) 94 % of control | dose: 100.0 mg/kg/injection, schedule: Q04DX003 (ip), vehicle: Klucel (hydroxypropylcellulose) (HPC) 102 % of control

O=C(Nc1ccc(Cl)cc1C(F)(F)F)Oc1ccc(-c2ccccc2)cc1Br
inactive: dose: 50.0 mg/kg/injection, schedule: Q01DX009 (ip), vehicle: saline 95 % of control | dose: 100.0 mg/kg/injection, schedule: Q01DX009 (ip), vehicle: saline 88 % of control | dose: 200.0 mg/kg/injection, schedule: Q01DX009 (ip), vehicle: saline 97 % of control

CCC#CC(=O)OCC
inactive: [4] 113 % of control | [5] 102 % of control | [6] 121 % of control

NC(C(=O)O)c1ccc(CBr)cc1 (centres undefined)
active: dose: 25.0 mg/kg/injection, schedule: Q04DX003 (ip), vehicle: saline with Tween-80 151 % of control | dose: 100.0 mg/kg/injection, schedule: Q04DX003 (ip), vehicle: saline with Tween-80 151 % of control and 165 % of control

O=C1CC2(CCCC2)C(=O)N1c1ccc(O)c(CN2CCCCC2)c1
inactive: [1] 99 % of control | [2] 104 % of control | [3] 98 % of control

COC1=CCC2=C(CC[C@H]3[C@H]2CCP3C)C1 (some centres undefined)
inactive: [7] 101 % of control | [8] 111 % of control | dose: 200.0 mg/kg/injection, schedule: Q01DX005 (ip), vehicle: saline with Tween-80 103 % of control

COc1ccc2cc3n(c(=N)c2c1OC)CCc1cc2c(cc1-3)OCO2
inactive: dose: 0.63 mg/kg/injection, schedule: Q01DX009 (ip), vehicle: water 101 % of control | dose: 1.25 mg/kg/injection, schedule: Q01DX009 (ip), vehicle: water 110 % of control | dose: 2.5 mg/kg/injection, schedule: Q01DX009 (ip), vehicle: water 105 % of control | dose: 5.0 mg/kg/injection, schedule: Q01DX009 (ip), vehicle: water 110 % of control | dose: 10.0 mg/kg/injection, schedule: Q01DX009 (ip), vehicle: water 110 % of control | dose: 20.0 mg/kg/injection, schedule: Q01DX009 (ip), vehicle: water 110 % of control

CCOC(=O)CC(Cc1cc(OC)ccc1OC)(C(C)=O)C(C)=O
inactive: dose: 25.0 mg/kg/injection, schedule: Q01DX009 (ip), vehicle: other 100 % of control | dose: 50.0 mg/kg/injection, schedule: Q01DX009 (ip), vehicle: other 100 % of control | dose: 100.0 mg/kg/injection, schedule: Q01DX009 (ip), vehicle: other 100 % of control | dose: 200.0 mg/kg/injection, schedule: Q01DX009 (ip), vehicle: other 98 % of control | dose: 400.0 mg/kg/injection, schedule: Q01DX009 (ip), vehicle: other 100 % of control

O=C1N(CCc2ccccc2)CCCS1(=O)=O
inactive: [7] 115 % of control | [8] 117 % of control

O=P(OCC(Br)CBr)(OCC(Br)CBr)OCC(Br)CBr (centres undefined)
inactive: dose: 100.0 mg/kg/injection, schedule: Q01DX009 (ip), vehicle: saline with Tween-80 112 % of control and 114 % of control | dose: 200.0 mg/kg/injection, schedule: Q01DX009 (ip), vehicle: saline with Tween-80 106 % of control and 109 % of control | dose: 400.0 mg/kg/injection, schedule: Q01DX009 (ip), vehicle: saline with Tween-80 103 % of control and 106 % of control | dose: 800.0 mg/kg/injection, schedule: Q01DX009 (ip), vehicle: saline with Tween-80 109 % of control and 94 % of control

CCNc1ccc2c(c1)C(=O)N(OS(C)(=O)=O)C2=O
inactive: [7] 97 % of control | [8] 92 % of control

CC(C)CC(NC(=O)C(C)N)C(N)=O (centres undefined)
inactive: dose: 50.0 mg/kg/injection, schedule: Q01DX005 (ip), vehicle: saline 99 % of control | dose: 100.0 mg/kg/injection, schedule: Q01DX005 (ip), vehicle: saline 103 % of control | dose: 200.0 mg/kg/injection, schedule: Q01DX005 (ip), vehicle: saline 96 % of control

CC1=N[C@@H](C(=O)NCC(N)=O)Cc2c1[nH]c1ccccc21
inactive: [4] 98 % of control | [5] 93 % of control | [6] 93 % of control

CCCCCCCCCc1ccc(OC(=O)CCC)cc1
inactive: [2] 102 % of control | [3] 97 % of control | dose: 400.0 mg/kg/injection, schedule: Q01DX009 (ip), vehicle: Klucel (hydroxypropylcellulose) (HPC) 99 % of control

N=C(N)Cc1ccc(NC(=O)c2ccc(C(=O)Nc3ccc(CC(=N)N)cc3)cc2)cc1
inactive: dose: 9.37 mg/kg/injection, schedule: Q01DX001 (ip), vehicle: saline with Tween-80 120 % of control | dose: 18.75 mg/kg/injection, schedule: Q01DX001 (ip), vehicle: saline with Tween-80 120 % of control | dose: 37.5 mg/kg/injection, schedule: Q01DX001 (ip), vehicle: saline with Tween-80 115 % of control

CC(=O)C1=CN(C)c2ccccc2[S@@]1=O
inactive: dose: 50.0 mg/kg/injection, schedule: Q01DX005 (ip), vehicle: Klucel (hydroxypropylcellulose) (HPC) 103 % of control | dose: 100.0 mg/kg/injection, schedule: Q01DX005 (ip), vehicle: Klucel (hydroxypropylcellulose) (HPC) 100 % of control | dose: 200.0 mg/kg/injection, schedule: Q01DX005 (ip), vehicle: Klucel (hydroxypropylcellulose) (HPC) 100 % of control
